Source: PubChem BioAssay AID1259427 (Fisher Drug Discovery Resource Center, 2018)
“And” between values parts separate entries of the source, which are not always exact repeats. Equal values may be shown once. The source made the active and inactive calls.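 The calls were made as follows: active = EC50 at or below a set limit, with no effect in the paired counter-screen assay; inactive = the rest.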

What follows are molecules tested against Aedes aegypti neuropeptide Y-like receptor 7 (NPYLR7) (assay: NPYLR7 activation potency in cells – cell-based, Aedes aegypti, hit validation, mosquito biting behavior, confirmation (AID 1259427;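 also: potency of agonists that activate the receptor and raise the calcium signal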)). Conditions: HEK293T NPYLR7/Galpha15/GCaMP6s, calcium fluorescence.

| SMILES | EC50 |
| --- | --- |
| CN1CCc2c(sc(NC(=O)Cc3ccccc3)c2-c2nc3ccccc3s2)C1 | > 20 µM (inactive) |
| CCOc1cc(/C=C2\SC(=S)N(NC(=O)c3ccccc3O)C2=O)ccc1O | > 20 µM (inactive) |
| O=C(O)c1csc(CSc2nnc(-c3ccncc3)n2-c2cccc(C(F)(F)F)c2)n1 | > 20 µM (inactive) |
| CCOc1ccc(C(=O)Nc2sc3c(c2-c2nc4ccccc4s2)CCN(C)C3)cc1 | > 20 µM (inactive) |
| CSCCC(C(=O)O)N1C(=O)/C(=C/c2ccc(O)cc2)SC1=S (stereo not given) | > 20 µM (inactive) |
| Clc1ccc(-c2noc3c2CN(CCn2cc(Cl)cn2)CC3)cc1 | > 20 µM (inactive) |
| CCN1CC=C2C(C#N)C(=N)C(C#N)(C#N)C(c3cccs3)C2C1 (stereo not given) | > 20 µM (inactive) |
| O=C1/C(=C/c2cc3ccccc3o2)Oc2c1ccc(O)c2CN1CCN(CCO)CC1 | inactive |
| COc1cc(/C=C/c2nc3ccccc3o2)cc(Cl)c1O | inactive |
| CCc1nn(C(C)C(=O)NC(C)CCc2ccco2)c(=O)c2cc3occc3n12 (stereo not given) | inactive |
| CCOC=C(C#N)c1nc(C)cs1 | inactive |
| N#CC(C#N)=C1C=C2C=C(N3CCCCC3)CCC2CC1 (stereo not given) | < 0.039 µM (inactive) |
| COc1ccc(C(=O)C=Cc2cc(Br)c(O)c(OC)c2)cc1F | inactive |
| FC(F)(F)c1ccc(-c2nc3ccc(Cl)cn3c2NCc2ccccc2)cc1 | > 20 µM (inactive) |
| CCN(CC)c1ccc(/C=C2\SC(=S)N(CCS(=O)(=O)O)C2=O)cc1 | inactive |
| CCOC(=O)C1CCCN(c2nc3nonc3nc2N2CCSCC2)C1 (stereo not given) | > 20 µM (inactive) |
| CCCCN(CC(=O)Nc1c(-c2ccccc2)c(C)nn1-c1ccccc1C)S(=O)(=O)c1ccc(F)cc1 | > 20 µM (inactive) |
| CN1C(=S)N(C2CCCCC2)C(=O)/C1=C\c1ccc2c(c1)OCO2 | > 20 µM (inactive) |
| CSc1ccc(C2CC(c3cccs3)=Nc3ncnn32)cc1 (stereo not given) | inactive |
| O=c1oc2cc(O)ccc2cc1-c1nc2ccccc2s1 | inactive |
| COc1ccc(OC)c(CCNc2nc3cnc(-c4cc(OC)c(OC)c(OC)c4)cc3n2C)c1 | 12.7 µM |
| COc1ccc(OC)c(CCNc2nc3cnc(-c4ccc(Cl)cc4)cc3n2C)c1 | 19.5 µM |
| O=C(C1=NN(c2ccccc2)C2C(=O)N(c3ccccc3)C(=O)C12)c1ccccc1 (stereo not given) | > 20 µM (inactive) |
| COc1ccccc1Oc1nc2ccccn2c(=O)c1/C=C(\C#N)c1nc2ccccc2s1 | > 20 µM (inactive) |
| Cc1ccc(OCCNC(=O)N2CCN(S(=O)(=O)c3ccccc3Cl)CC2)c(C)c1 | > 20 µM (inactive) |

| SMILES | EC50 |
| --- | --- |
| CC1CC2(C)Oc3ccccc3C3OCC1(CO)C(C)C32 (stereo not given) | > 20 µM (inactive) |
| Cc1cc(C=C2Sc3ccccc3N2C)cc(C)[n+]1-c1ccccc1 | inactive |
| O=C(O)CN1C(=O)/C(=C\c2cc([N+](=O)[O-])cc(Br)c2O)SC1=S | inactive |
| Cc1ccc(C(=O)C=Cc2ccc(N(C)C)cc2)o1 | < 0.039 µM (inactive) |
| Cc1cccc(Oc2nc3ccccn3c(=O)c2/C=C(\C#N)c2nc3ccccc3s2)c1 | > 20 µM (inactive) |
| COCCCN(Cc1ccc(C(C)(C)C)cc1)Cc1cccn1Cc1cccc(C)c1 | > 20 µM (inactive) |
| CC(=O)NCCc1ccc(O)c(O)c1 | inactive |
| Nc1c2c(nc3sc4c(c13)CCCC4)CCCCC2 | > 20 µM (inactive) |
| CCN(CC)c1ccc2c(-c3ccccc3C(=O)O)c3ccc(=[N+](CC)CC)cc-3oc2c1 | inactive |
| COc1ccc(N2CCN(c3cc(C(F)(F)F)nc(SCc4cccc(C(=O)NCc5ccccn5)c4)n3)CC2)cc1 | > 20 µM (inactive) |
| CCCC1CCC(C(=O)Nc2nnc(SCC)s2)CC1 (stereo not given) | > 20 µM (inactive) |
| COc1ccc(-n2ccnc2-c2nc(-c3cccs3)oc2C)cn1 | > 20 µM (inactive) |
| CCOc1cc(/C=C(\C#N)c2nc3ncc(Br)cc3[nH]2)ccc1O | inactive |
| O=C1OC(c2ccc(Cl)c([N+](=O)[O-])c2)=N/C1=C\c1cc2cc3c4c(c2oc1=O)CCCN4CCC3 | < 0.039 µM (inactive) |
| CNC[C@H](O)c1ccc(O)c(O)c1 | inactive |
| O=C(N=Nc1c(O)[nH]c2ccc(Br)cc12)c1ccccc1Cl | > 20 µM (inactive) |
| CSc1nnc2c(n1)OC(c1ccc(OC(=O)c3ccc(Br)cc3)cc1)Nc1ccccc1-2 (stereo not given) | > 20 µM (inactive) |
| O=C(O)CCN1C(=O)/C(=C/c2ccc(O)cc2)SC1=S | inactive |
| CCOC(=O)c1ccccc1-c1c2ccc(=N)cc-2oc2cc(N)ccc12 | < 0.039 µM (inactive) |
| COc1ccc(C2=NN(C(=O)CN3CCOCC3)C(c3nc4ccccc4[nH]3)C2)cc1 (stereo not given) | > 20 µM (inactive) |
| COc1ccc(C(=O)N(Cc2ccccc2)C2CCC(NC(=O)C3CCN(C(=O)c4ccccc4Cl)CC3)CC2)cc1 (stereo not given) | 18 µM |
| CCN1CC(=Cc2cc(C)n(C3CC3)c2C)C(=O)C(=Cc2cc(C)n(C3CC3)c2C)C1 | > 20 µM (inactive) |
| CC(C)C(=O)Nc1sc2c(c1-c1nc3ccccc3s1)CCN(C)C2 | > 20 µM (inactive) |
| Cc1c(NC(=O)COC(=O)C(C#N)=Cc2ccc(N(C)C)cc2)c(=O)n(-c2ccccc2)n1C | > 20 µM (inactive) |
| CCN1C(=Cc2ccc3cc(C)ccc3[n+]2CC)Sc2ccccc21 | inactive |

| SMILES | EC50 |
| --- | --- |
| O=C(O)CSc1ccc2c3c(cccc13)C(=O)c1ccccc1-2 | inactive |
| Cn1c(C(C#N)=Cc2c(F)c(F)c(F)c(F)c2F)nc2ccccc21 | < 0.039 µM (inactive) |
| CCCCNC(=O)CCCCCNC(N)=O | > 20 µM (inactive) |
| CC(C)Nc1ccc(NS(=O)(=O)NCc2ccccc2)cn1 | > 20 µM (inactive) |
| CC1=CC(C)C(C(=O)O)C(C(=O)O)C1 (stereo not given) | > 20 µM (inactive) |
| Nc1c(S(=O)(=O)O)cc2c3c(cccc13)C(=O)N(CCO)C2=O | inactive |
| COc1cc(NC(=O)N2CC(=O)N3CCc4c(F)cccc4C3C2)cc(OC)c1OC (stereo not given) | > 20 µM (inactive) |
| COc1cc(-c2nc3n(n2)C(c2ccc(O)cc2)C(C(N)=O)=C(C)N3)cc(OC)c1OC (stereo not given) | > 20 µM (inactive) |
| COCCn1c(C)cn2c3c(=O)n(Cc4ccc(Cl)cc4)c(=O)n(C)c3nc12 | > 20 µM (inactive) |
| CC[C@@]1(O)C(=O)OCc2c1cc1n(c2=O)Cc2cc3c(CN(C)C)c(O)ccc3nc2-1 | inactive |
| C[n+]1c2cc(N)ccc2cc2ccc(N)cc21 | < 0.039 µM (inactive) |
| CCN(CC)C1=CC2=CC(=C(C#N)C#N)CCC2CC1 (stereo not given) | < 0.039 µM (inactive) |
| COc1cc(C=C2SC(=S)NC2=O)cc(Br)c1O | inactive |
| O=c1nc2sc3[nH]c(=O)sc3cc-2s1 | < 0.039 µM (inactive) |
| O=c1[nH]c(CCl)nc2sc3c(c12)CCN(Cc1ccccc1)C3 | > 20 µM (inactive) |
| CCN1CCN(C(=O)c2ccc(Cn3ccsc3=NC(=O)c3ccc(OC)c(OC)c3)o2)CC1 | 14.3 µM |
| COc1ccccc1OCCCOc1ccc(Br)cc1Cl | > 20 µM (inactive) |
| O=C1CSC(=S)N1N=Cc1cc(Br)c(O)c(Br)c1 | inactive |
| CCCn1c2c(c(=O)n(C)c1=O)C(=O)C(=Cc1ccc(N(C)C)cc1)N2 | inactive |
| C(=Cc1ccccc1)C=NNc1ncnc2ccccc12 | > 20 µM (inactive) |
| COc1ccc(OC)c(CCNc2nc3cnc(-c4cccc5ccccc45)cc3n2C)c1 | 12.4 µM |
| COc1cc(C=C(C#N)S(=O)(=O)c2cc(Br)ccc2Br)ccc1O | > 20 µM (inactive) |
| COc1cccc(-n2c(O)c(C=Nc3cc(OC)ccc3OC)c3ccccc3c2=O)c1 | > 20 µM (inactive) |
| C#CCN1C(=O)SC(=Cc2ccc(N3CCCCC3)o2)C1=O | inactive |
| CC1=NCCc2c1[nH]c1cc(O)ccc21 | inactive |

| SMILES | EC50 |
| --- | --- |
| COc1ccc(-c2cnn(CCC(N)=O)c2)c(C)c1 | > 20 µM (inactive) |
| CNCC(O)c1ccc(O)c(O)c1 (stereo not given) | inactive |
| COc1ccccc1CCNC(=O)c1ccc(Cn2c(C)nc3ccccc32)o1 | > 20 µM (inactive) |
| CCN(CC)c1ccc(/C=C2\SC(=S)N(CC(=O)O)C2=O)c(O)c1 | inactive |
| COc1ccc(Cl)cc1NC(=O)/C(C#N)=C/c1coc2ccc(C)cc2c1=O | > 20 µM (inactive) |
| Cc1cc(C)c2cc3c(cc2n1)CCN3CC(O)CO (stereo not given) | inactive |
| Cc1ccc2c(c1)CCCN2CC(=O)N(CCC(N)=O)c1ccccc1 | > 20 µM (inactive) |
| COc1cc(/C=C2\SC(=S)N(C(C)C(=O)O)C2=O)ccc1O (stereo not given) | inactive |
| Cc1ccc(CNC(=O)NC(c2ccc3c(c2)OCCCO3)C(C)C)cc1F (stereo not given) | > 20 µM (inactive) |
| CCOC(=O)N1CCC(NC(=O)c2sc3nc4c(c(C(F)(F)F)c3c2N)CC(C)CC4)CC1 (stereo not given) | > 20 µM (inactive) |
| CCOC(=O)C1CCN(C(=O)CC(c2cccc(C(F)(F)F)c2)c2c[nH]c3c(CC)cccc23)CC1 (stereo not given) | > 20 µM (inactive) |
| CC(C)NC[C@H](O)c1ccc(O)c(O)c1 | < 39 nM (inactive) and > 20 µM (inactive) |
| CN1C(=CC=C2C(=O)Oc3ccccc3C2=O)C(C)(C)c2ccccc21 | inactive |
| Cc1cc(O)c(CN2CCN(C)CC2)c2c1C(=O)/C(=C/c1cccs1)O2 | > 20 µM (inactive) |
| Cc1ccc(NC2C=CS(=O)(=O)C2)cc1C (stereo not given) | > 20 µM (inactive) |
| CC(=O)OC(C)C[N+](C)(C)C (stereo not given) | > 20 µM (inactive) |
| CCOc1cc2c(cc1C=C(C#N)C#N)OC(C)C2 (stereo not given) | > 20 µM (inactive) |
| CCCc1[nH]n(-c2ccc(Cl)cc2)c(=O)c1/C=C1\NC(=O)N(Cc2ccc(C)cc2)C1=O | > 20 µM (inactive) |
| Nc1nc(Cl)nc2c1ncn2[C@@H]1O[C@H](COP(=O)(O)OP(=O)(O)OP(=O)(O)O)[C@H](O)C1O (stereo not given in full) | < 0.039 µM (inactive) |
| N#CC1C(=N)Oc2cc(N)ccc2C1c1c(Cl)cccc1Cl (stereo not given) | > 20 µM (inactive) |
| Cc1nc(Sc2nnc3ccccn23)c2c3c(sc2n1)CCCC3 | > 20 µM (inactive) |
| CC(C)(C)NCC(O)c1ccc(O)c(CO)c1 (stereo not given) | > 20 µM (inactive) |
| Cc1nc(=O)c(-c2ccccc2)c(C)n1-c1ccccc1O | > 20 µM (inactive) |
| COc1cc(C(=O)N2CCOC(c3ccccc3)C2)cc(OC)c1C (stereo not given) | > 20 µM (inactive) |
| COc1ccc(Cl)cc1Nc1nnc(-c2cc3c(ccc4ccccc43)oc2=O)s1 | > 20 µM (inactive) |
